Results as given in patent US10293148B2, “System, retainer and method of preventing and treating nosocomial infections including methicillin-resistant Staphylococcus aureus infections” (priority 2017, dated 2019).

Test system: S. epidermidis ATCC 12228
Test: ASTM E1153 sanitizer test on inoculated glass carriers
Assay type: cell-based, staphylococcus epidermidis
Protocol: As used herein, “CFU” refers to “colony forming unit;” the term “Log Reduction” means Log(B/A), where B=the colony form unit (CFU) number of viable test microorganisms on the control carriers after the contact time and A=the colony form unit (CFU) number of viable test microorganisms on the test carriers after the contact time. All log numbers are base-10 logarithms. […] The experiment was conducted pursuant to the American Society for Testing and Materials (ASTM) E1153, a quantitative test method designed to substantiate sanitizer claims for disinfectants on inanimate, non-porous, non-food contact surfaces. […] The commercial acne products were categorized based on their identified disinfecting ingredient. The representative test microorganism used to conduct the study was staphylococcus epidermidis (“S. epidermidis”). S. epidermidis is a gram-positive, cocci-shaped, facultative anaerobe, living mainly on the skin's surface and mucosa. S. epidermidis is one of the most common organisms contributing to nosocomial infections due to the increase in medical usage of biomaterials. Specifically, S. epidermidis infections are associated with intravascular devices (prosthetic heart valves, shunts, etc.), prosthetic joints, catheters, and postoperative wounds and the urinary tract. […] The ASTM […] protocol includes growing the test microorganism in a liquid culture medium. A series of hard, non-porous glass slides (“carriers”) are inoculated with the representative test microorganisms, and subsequently dried in an incubator. ASTM […] utilizes non-antimicrobial agents as controls to establish baselines for microbial reductions. For this study, each inoculation area was kept to a 10 mm circle to match the output tip of the […] light source. Once completely dried, the inoculated test carriers were treated with the test substances and incubated for the predetermined contact time. […] Each […] light source was set to the high power setting for testing. Control carriers were treated with a buffered saline solution and allowed to sit for the predetermined contact time. At the conclusion of the contact time, treated carriers were transferred to vessels containing neutralizing media. Dilutions of the neutralized test substance were assayed for microbial survivors using appropriate growth media. To determine microbial reduction, the effect of the test substance is compared to the effect of the control substance. […] The percent reduction is determined by evaluating the number of microorganisms on the control carriers after the contact time with the number of viable microorganisms on the test carriers after contact time.

[1] = stand-alone, no light, contact time 10 Seconds, Initial Numbers 1.4E+05
[2] = stand-alone, no light, contact time 20 Seconds, Initial Numbers 1.4E+05
[3] = stand-alone, no light, contact time 30 Seconds, Initial Numbers 1.4E+05
[4] = with Synederm Light (385-515 nm), contact time 10 Seconds, Numbers Control 2.97E+05
[5] = with Synederm Light (385-515 nm), contact time 30 Seconds, Numbers Control 2.97E+05
[6] = with Synederm Light (385-515 nm), contact time 60 Seconds, Numbers Control 2.97E+05
[7] = with Synederm Light (420-480 nm), contact time 10 Seconds, Numbers Control 2.97E+05
[8] = with Synederm Light (420-480 nm), contact time 30 Seconds, Numbers Control 2.97E+05
[9] = with Synederm Light (420-480 nm), contact time 60 Seconds, Numbers Control 2.97E+05
[10] = with Synederm Light (385-515 nm), contact time 10 Seconds, Numbers Control 2.97E+05, listed as 3.0% Hydrogen Peroxide
[11] = with Synederm Light (385-515 nm), contact time 30 Seconds, Numbers Control 2.97E+05, listed as 3.0% Hydrogen Peroxide
[12] = with Synederm Light (385-515 nm), contact time 60 Seconds, Numbers Control 2.97E+05, listed as 3.0% Hydrogen Peroxide
[13] = with Synederm Light (420-480 nm), contact time 10 Seconds, Numbers Control 2.97E+05, listed as 3.0% Hydrogen Peroxide
[14] = with Synederm Light (420-480 nm), contact time 30 Seconds, Numbers Control 2.97E+05, listed as 3.0% Hydrogen Peroxide
[15] = with Synederm Light (420-480 nm), contact time 60 Seconds, Numbers Control 2.97E+05, listed as 3.0% Hydrogen Peroxide

For `OO` [0.3% Hydrogen Peroxide, hydrogen peroxide], the CFU/Carrier [1] was 8.3E+04 CFU/Carrier, the “Log10 Reduction Compared to Control” value [1] was 0.23 Log10 and the “Percent Reduction Compared to Control” value [1] was 40.7%. The CFU/Carrier [2] was 7.50E+04 CFU/Carrier, the “Log10 Reduction Compared to Control” value [2] was 0.27 Log10 and the “Percent Reduction Compared to Control” value [2] was 46.4%. The CFU/Carrier [3] was 1.20E+05 CFU/Carrier, the “Log10 Reduction Compared to Control” value [3] was 0.07 Log10 and the “Percent Reduction Compared to Control” value [3] was 14.3%. The CFU/Carrier [4] was 7.58E+4 CFU/Carrier, the “Log10 Reduction Compared to Control” value [4] was 0.59 Log10 and the “Percent Reduction Compared to Control” value [4] was 74.4%. For the same compound, the CFU/Carrier [5] was 3.66E+04 CFU/Carrier, the “Log10 Reduction Compared to Control” value [5] was 0.91 Log10 and the “Percent Reduction Compared to Control” value [5] was 87.7%. The CFU/Carrier [6] was 9.10E+03 CFU/Carrier, the “Log10 Reduction Compared to Control” value [6] was 1.51 Log10 and the “Percent Reduction Compared to Control” value [6] was 96.9%. For the same compound, the CFU/Carrier [7] was 1.30E+05 CFU/Carrier, the “Log10 Reduction Compared to Control” value [7] was 0.36 Log10 and the “Percent Reduction Compared to Control” value [7] was 56.2%. The CFU/Carrier [8] was 1.30E+05 CFU/Carrier, the “Log10 Reduction Compared to Control” value [8] was 0.36 Log10 and the “Percent Reduction Compared to Control” value [8] was 56.3%. The CFU/Carrier [9] was 2.28E+04 CFU/Carrier, the “Log10 Reduction Compared to Control” value [9] was 1.11 Log10 and the “Percent Reduction Compared to Control” value [9] was 92.3%.
For `OO` [3% Hydrogen Peroxide, hydrogen peroxide], the CFU/Carrier [1] was 7.50E+04 CFU/Carrier, the “Log10 Reduction Compared to Control” value [1] was 0.27 Log10 and the “Percent Reduction Compared to Control” value [1] was 46.4%. The CFU/Carrier [2] was 8.00E+04 CFU/Carrier, the “Log10 Reduction Compared to Control” value [2] was 0.24 Log10 and the “Percent Reduction Compared to Control” value [2] was 42.9%. The CFU/Carrier [3] was 6.30E+04 CFU/Carrier, the “Log10 Reduction Compared to Control” value [3] was 0.35 Log10 and the “Percent Reduction Compared to Control” value [3] was 55%. For the same compound, the CFU/Carrier [10] was 5.80E+04 CFU/Carrier, the “Log10 Reduction Compared to Control” value [10] was 0.71 Log10 and the “Percent Reduction Compared to Control” value [10] was 80.4%. For the same compound, the CFU/Carrier [11] was 1.34E+03 CFU/Carrier, the “Log10 Reduction Compared to Control” value [11] was 2.34 Log10 and the “Percent Reduction Compared to Control” value [11] was 99.5%. The CFU/Carrier [12] was under 1.00E+01 CFU/Carrier, the “Log10 Reduction Compared to Control” value [12] was over 4.55 Log10 and the “Percent Reduction Compared to Control” value [12] was over 99.997%. For the same compound, the CFU/Carrier [13] was 2.19E+04 CFU/Carrier, the “Log10 Reduction Compared to Control” value [13] was 1.13 Log10 and the “Percent Reduction Compared to Control” value [13] was 92.6%. The CFU/Carrier [14] was 6.20E+03 CFU/Carrier, the “Log10 Reduction Compared to Control” value [14] was 1.68 Log10 and the “Percent Reduction Compared to Control” value [14] was 97.9%. For the same compound, the CFU/Carrier [15] was under 1.00E+01 CFU/Carrier, the “Log10 Reduction Compared to Control” value [15] was over 4.55 Log10 and the “Percent Reduction Compared to Control” value [15] was over 99.997%. For the same compound, the “ASTM International passing criteria (3 Log10 or 99.9% reduction)” value (with Synederm light (385-515nm) for 60 seconds) was “satisfied the ASTM International passing criteria” and the “ASTM International passing criteria (3 Log10 or 99.9% reduction)” value (with Synederm light (420-480nm) for 60 seconds) was “satisfied the ASTM International passing criteria”.
